Reference: ChEMBL document CHEMBL3132769, “Fragment growing to retain or alter the selectivity of anchored kinase hinge-binding fragments” (Medchemcomm, 2014)

Assays:
[1] = target: Serine/threonine-protein kinase pim-1 (Homo sapiens) (UniProt P11309); test: Inhibition of human full length PIM1 expressed in baculovirus assessed as substrate phosphorylation using fluorescence-labelled peptides as substrate at 0.06 uM after 90 mins by microfluidic peptide phosphorylation assay
[2] = target: T1, Mitogen-activated protein kinase 12 (Homo sapiens) (UniProt P53778); test: Inhibition of human full length p38 gamma expressed in Escherichia coli cell assessed as substrate phosphorylation using fluorescence-labelled peptides as substrate at 0.06 uM after 90 mins by microfluidic peptide phosphorylation assay
T1 sequence (whole entry): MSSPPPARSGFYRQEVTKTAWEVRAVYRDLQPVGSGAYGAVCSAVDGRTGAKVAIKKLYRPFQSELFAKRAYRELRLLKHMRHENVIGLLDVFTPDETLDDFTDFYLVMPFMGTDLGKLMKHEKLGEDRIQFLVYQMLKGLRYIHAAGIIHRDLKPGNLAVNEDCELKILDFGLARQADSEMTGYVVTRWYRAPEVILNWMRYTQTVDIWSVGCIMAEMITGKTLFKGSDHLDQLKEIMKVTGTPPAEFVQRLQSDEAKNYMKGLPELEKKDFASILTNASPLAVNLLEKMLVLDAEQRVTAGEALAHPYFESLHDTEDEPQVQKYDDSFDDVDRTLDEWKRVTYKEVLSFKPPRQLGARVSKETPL

[3] = target: Mitogen-activated protein kinase 3 (Homo sapiens) (UniProt P27361); test: Inhibition of human full length ERK1 expressed in Escherichia coli cell assessed as substrate phosphorylation using fluorescence-labelled peptides as substrate at 0.06 uM after 90 mins by microfluidic peptide phosphorylation assay
Chain of Mitogen-activated protein kinase 3 (Homo sapiens) (P27361 whole entry, the tested form may be a part): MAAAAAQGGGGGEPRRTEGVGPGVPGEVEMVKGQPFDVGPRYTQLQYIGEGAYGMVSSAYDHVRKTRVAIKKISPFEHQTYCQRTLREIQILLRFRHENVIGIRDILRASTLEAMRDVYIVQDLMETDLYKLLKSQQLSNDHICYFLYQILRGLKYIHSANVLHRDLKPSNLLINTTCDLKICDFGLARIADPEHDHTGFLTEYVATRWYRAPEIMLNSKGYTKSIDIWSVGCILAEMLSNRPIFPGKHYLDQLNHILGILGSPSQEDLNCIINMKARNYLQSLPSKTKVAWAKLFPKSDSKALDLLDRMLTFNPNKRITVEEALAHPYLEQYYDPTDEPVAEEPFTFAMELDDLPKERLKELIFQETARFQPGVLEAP

[4] = target: Mitogen-activated protein kinase 14 (Homo sapiens) (UniProt Q16539); test: Inhibition of human truncated p38 alpha expressed in Escherichia coli cell assessed as substrate phosphorylation using fluorescence-labelled peptides as substrate at 0.06 uM after 90 mins by microfluidic peptide phosphorylation assay
Chain of Mitogen-activated protein kinase 14 (Homo sapiens) (Q16539 whole entry, the tested form may be a part): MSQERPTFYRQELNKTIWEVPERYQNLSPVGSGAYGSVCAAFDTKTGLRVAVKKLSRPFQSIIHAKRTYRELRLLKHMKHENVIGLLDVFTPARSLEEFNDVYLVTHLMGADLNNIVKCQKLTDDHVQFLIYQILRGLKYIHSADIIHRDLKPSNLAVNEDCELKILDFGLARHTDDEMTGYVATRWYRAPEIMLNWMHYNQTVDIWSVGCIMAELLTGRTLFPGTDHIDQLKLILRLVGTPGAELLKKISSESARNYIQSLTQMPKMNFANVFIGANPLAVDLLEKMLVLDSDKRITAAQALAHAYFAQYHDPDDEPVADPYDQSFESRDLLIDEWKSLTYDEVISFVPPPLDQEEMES

[5] = test system: Tyrosine-protein kinase ABL1 (Homo sapiens), P00519 [T315I]; test: Inhibition of human truncated ABL T315I mutant expressed in baculovirus assessed as substrate phosphorylation using fluorescence-labelled peptides as substrate at 95 uM after 90 mins by microfluidic peptide phosphorylation assay
[6] = target: T2, cGMP-dependent protein kinase 1 (Homo sapiens) (UniProt Q13976); test: Inhibition of human full length PKG-1a expressed in baculovirus assessed as substrate phosphorylation using fluorescence-labelled peptides as substrate at 9 uM after 90 mins by microfluidic peptide phosphorylation assay
T2 sequence (whole entry): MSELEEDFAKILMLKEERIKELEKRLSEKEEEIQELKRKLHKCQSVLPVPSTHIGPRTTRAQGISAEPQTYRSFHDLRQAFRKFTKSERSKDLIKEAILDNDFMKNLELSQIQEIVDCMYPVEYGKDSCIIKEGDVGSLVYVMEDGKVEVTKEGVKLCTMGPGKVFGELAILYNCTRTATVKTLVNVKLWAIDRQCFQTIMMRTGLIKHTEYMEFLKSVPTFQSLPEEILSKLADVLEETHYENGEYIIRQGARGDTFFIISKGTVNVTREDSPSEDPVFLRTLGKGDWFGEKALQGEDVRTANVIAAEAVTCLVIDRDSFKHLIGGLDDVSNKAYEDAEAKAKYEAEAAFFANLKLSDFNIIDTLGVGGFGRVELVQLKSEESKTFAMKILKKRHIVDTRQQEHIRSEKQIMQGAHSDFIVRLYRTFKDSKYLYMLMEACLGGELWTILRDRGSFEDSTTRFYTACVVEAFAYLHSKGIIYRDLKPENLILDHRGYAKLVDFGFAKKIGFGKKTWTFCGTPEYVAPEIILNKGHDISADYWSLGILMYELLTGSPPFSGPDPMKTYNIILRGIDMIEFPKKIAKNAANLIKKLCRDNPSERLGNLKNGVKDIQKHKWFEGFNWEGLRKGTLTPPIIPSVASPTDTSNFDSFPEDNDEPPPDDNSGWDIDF

[7] = target: Ribosomal protein S6 kinase alpha-1 (Homo sapiens) (UniProt Q15418); test: Inhibition of human full length RSK1 expressed in baculovirus assessed as substrate phosphorylation using fluorescence-labelled peptides as substrate at 1000 uM after 90 mins by microfluidic peptide phosphorylation assay
Chain of Ribosomal protein S6 kinase alpha-1 (Homo sapiens) (Q15418 whole entry): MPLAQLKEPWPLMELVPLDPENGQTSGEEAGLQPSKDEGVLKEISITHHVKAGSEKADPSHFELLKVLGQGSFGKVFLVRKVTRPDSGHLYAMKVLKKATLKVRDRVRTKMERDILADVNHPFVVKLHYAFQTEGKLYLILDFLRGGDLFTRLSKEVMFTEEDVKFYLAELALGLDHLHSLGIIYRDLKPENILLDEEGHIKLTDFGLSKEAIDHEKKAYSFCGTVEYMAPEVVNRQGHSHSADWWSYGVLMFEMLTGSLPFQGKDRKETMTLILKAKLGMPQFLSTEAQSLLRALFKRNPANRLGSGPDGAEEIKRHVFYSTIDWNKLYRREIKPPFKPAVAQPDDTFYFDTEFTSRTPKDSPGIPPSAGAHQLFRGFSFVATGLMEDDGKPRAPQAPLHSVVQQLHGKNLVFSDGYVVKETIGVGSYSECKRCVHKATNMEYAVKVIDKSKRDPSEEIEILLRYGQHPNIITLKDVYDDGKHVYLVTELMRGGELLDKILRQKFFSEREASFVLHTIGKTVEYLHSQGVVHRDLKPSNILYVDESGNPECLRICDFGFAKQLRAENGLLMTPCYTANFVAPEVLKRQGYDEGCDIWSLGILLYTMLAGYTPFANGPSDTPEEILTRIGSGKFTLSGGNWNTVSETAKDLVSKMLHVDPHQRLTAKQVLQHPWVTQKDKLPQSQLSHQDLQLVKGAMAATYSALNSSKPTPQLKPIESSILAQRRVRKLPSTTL

[8] = target: Dual specificity tyrosine-phosphorylation-regulated kinase 1A (Rattus norvegicus) (UniProt Q63470); test: Inhibition of rat full length DYRK1a expressed in Escherichia coli cell assessed as substrate phosphorylation using fluorescence-labelled peptides as substrate at 1000 uM after 90 mins by microfluidic peptide phosphorylation assay
[9] = target: Tyrosine-protein kinase Fer (Homo sapiens) (UniProt P16591); test: Inhibition of human FER catalytic domain expressed in baculovirus assessed as substrate phosphorylation using fluorescence-labelled peptides as substrate at […] after 90 mins by microfluidic peptide phosphorylation assay
Chain of Tyrosine-protein kinase Fer (Homo sapiens) (P16591 whole entry, looked up, the tested form may be a part): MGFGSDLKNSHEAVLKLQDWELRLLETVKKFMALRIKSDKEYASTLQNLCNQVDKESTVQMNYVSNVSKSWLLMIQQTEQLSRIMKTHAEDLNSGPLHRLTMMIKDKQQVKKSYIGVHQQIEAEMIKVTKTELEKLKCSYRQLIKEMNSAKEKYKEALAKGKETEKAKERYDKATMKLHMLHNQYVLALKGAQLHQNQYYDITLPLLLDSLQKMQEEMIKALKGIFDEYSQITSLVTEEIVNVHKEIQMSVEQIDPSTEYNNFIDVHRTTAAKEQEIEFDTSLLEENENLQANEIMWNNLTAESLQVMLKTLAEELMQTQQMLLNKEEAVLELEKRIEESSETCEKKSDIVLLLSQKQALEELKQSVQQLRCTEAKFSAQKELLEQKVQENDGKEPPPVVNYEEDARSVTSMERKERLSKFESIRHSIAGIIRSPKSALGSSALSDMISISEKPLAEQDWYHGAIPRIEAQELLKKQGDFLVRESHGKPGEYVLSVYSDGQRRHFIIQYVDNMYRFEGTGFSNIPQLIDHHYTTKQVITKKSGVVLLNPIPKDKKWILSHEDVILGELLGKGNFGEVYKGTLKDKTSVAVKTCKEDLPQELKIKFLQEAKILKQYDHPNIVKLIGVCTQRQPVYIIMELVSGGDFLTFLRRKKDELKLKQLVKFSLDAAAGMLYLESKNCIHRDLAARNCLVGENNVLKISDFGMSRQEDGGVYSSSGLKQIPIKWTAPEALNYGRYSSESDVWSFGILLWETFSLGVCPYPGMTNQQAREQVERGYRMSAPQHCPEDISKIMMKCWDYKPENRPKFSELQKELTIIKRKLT

[10] = target: T1, Mitogen-activated protein kinase 12 (Homo sapiens); test: Inhibition of human full length p38 gamma expressed in Escherichia coli cell assessed as substrate phosphorylation using fluorescence-labelled peptides as substrate at […] after 90 mins by microfluidic peptide phosphorylation assay
[11] = target: T3, Cytoplasmic tyrosine-protein kinase BMX (Homo sapiens) (UniProt P51813); test: Inhibition of human full length BMX expressed in baculovirus assessed as substrate phosphorylation using fluorescence-labelled peptides as substrate at 8 uM after 90 mins by microfluidic peptide phosphorylation assay
T3 sequence (whole entry): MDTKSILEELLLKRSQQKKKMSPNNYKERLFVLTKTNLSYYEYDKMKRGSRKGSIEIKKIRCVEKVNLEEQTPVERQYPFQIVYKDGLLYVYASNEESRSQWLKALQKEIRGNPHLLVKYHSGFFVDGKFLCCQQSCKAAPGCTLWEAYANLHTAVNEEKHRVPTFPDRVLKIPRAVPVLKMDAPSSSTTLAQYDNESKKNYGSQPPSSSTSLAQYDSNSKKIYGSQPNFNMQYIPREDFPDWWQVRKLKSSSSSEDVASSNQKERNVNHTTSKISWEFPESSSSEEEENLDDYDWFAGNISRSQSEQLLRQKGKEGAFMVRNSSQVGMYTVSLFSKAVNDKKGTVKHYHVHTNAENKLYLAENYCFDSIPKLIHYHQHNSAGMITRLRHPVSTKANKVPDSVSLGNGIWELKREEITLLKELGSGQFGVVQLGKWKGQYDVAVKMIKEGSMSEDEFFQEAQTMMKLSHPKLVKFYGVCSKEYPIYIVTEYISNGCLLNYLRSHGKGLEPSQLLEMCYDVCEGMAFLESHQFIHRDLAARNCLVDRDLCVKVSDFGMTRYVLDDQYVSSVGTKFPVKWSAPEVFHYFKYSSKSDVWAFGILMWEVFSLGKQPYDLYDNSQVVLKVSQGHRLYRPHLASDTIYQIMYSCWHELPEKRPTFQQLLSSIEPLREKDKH

[12] = target: Insulin receptor (Homo sapiens) (UniProt P06213); test: Inhibition of human INSR catalytic domain expressed in baculovirus assessed as substrate phosphorylation using fluorescence-labelled peptides as substrate at 8 uM after 90 mins by microfluidic peptide phosphorylation assay
[13] = target: Calcium/calmodulin-dependent protein kinase type II subunit gamma (Homo sapiens) (UniProt Q13555); test: Inhibition of human CAMK2 gamma catalytic domain expressed in baculovirus assessed as substrate phosphorylation using fluorescence-labelled peptides as substrate at 8 uM after 90 mins by microfluidic peptide phosphorylation assay
Chain of Calcium/calmodulin-dependent protein kinase type II subunit gamma (Homo sapiens) (Q13555 whole entry, the tested form may be a part): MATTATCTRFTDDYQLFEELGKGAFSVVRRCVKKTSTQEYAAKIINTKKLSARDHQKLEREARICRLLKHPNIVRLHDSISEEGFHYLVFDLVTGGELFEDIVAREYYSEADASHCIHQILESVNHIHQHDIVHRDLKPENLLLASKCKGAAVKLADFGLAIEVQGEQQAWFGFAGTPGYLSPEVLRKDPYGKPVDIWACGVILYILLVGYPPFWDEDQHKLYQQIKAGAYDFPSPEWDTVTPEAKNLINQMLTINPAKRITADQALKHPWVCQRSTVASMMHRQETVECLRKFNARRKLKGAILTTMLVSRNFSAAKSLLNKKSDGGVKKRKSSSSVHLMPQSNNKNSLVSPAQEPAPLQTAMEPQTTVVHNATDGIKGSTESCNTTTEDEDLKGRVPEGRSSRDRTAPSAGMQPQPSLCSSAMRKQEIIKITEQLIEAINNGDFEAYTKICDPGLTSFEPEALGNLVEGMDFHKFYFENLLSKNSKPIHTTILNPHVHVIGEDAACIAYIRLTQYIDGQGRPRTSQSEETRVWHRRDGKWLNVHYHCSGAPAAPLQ

Chain of Serine/threonine-protein kinase pim-1 (Homo sapiens) (P11309 whole entry, looked up): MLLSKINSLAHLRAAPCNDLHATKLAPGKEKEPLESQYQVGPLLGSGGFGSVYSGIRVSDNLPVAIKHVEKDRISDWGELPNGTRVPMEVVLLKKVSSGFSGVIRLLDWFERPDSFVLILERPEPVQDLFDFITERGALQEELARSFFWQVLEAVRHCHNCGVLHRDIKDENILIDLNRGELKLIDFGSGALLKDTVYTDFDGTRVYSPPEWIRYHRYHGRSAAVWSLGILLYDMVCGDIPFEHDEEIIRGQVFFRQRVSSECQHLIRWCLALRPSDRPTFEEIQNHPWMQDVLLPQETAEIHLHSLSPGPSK

NC1(Cc2ccc(Cl)cc2)CCN(c2ncnc3[nH]ccc23)CC1
inhibition [1]: 0% | inhibition [2]: 0% | inhibition [3]: 0% | inhibition [4]: 0%

NCCc1ccc(-c2ncnc3[nH]cnc23)cc1
inhibition [5]: 53%

NCC1CN(c2ncnc3[nH]c4cnccc4c23)CCO1 (stereo not drawn)
inhibition [6]: 15.5%

c1cnc2[nH]ccc2c1
inhibition [7]: 60.5% | inhibition [8]: 64.5%

COC(=O)c1cnc(Nc2cnc(C#N)cn2)cc1NCC1CCNCC1
inhibition [9]: 1% | inhibition [10]: 1.5%

NCC1CCN(c2ncnc3[nH]ccc23)CC1
inhibition [11]: 42.5% | inhibition [12]: 16.5% | inhibition [13]: 20.5%
